Earlier results as cited in patent US12479917B2, “Methods of treating NSCLC comprising administering platinum doublet chemotherapy followed by an anti-PD-1 antibody and an anti-CTLA-4 antibody” (priority 2018, dated 2025).

What was measured:
[1] = monotherapy, every two weeks; MTD not reached
advanced NSCLC = settings: second line (2 L)

Molecule | maximum tolerated dose (MTD) [1] [mg/kg] | efficacy outcomes compared with docetaxel (advanced NSCLC) | side effects compared with docetaxel (advanced NSCLC)
nivolumab | > 10 | – | –
Nc1nc2[nH]cc(CCc3ccc(C(=O)N[C@@H](CCC(=O)O)C(=O)O)cc3)c2c(=O)[nH]1 [Pemetrexed] | – | clinically equivalent efficacy outcomes | significantly fewer side effects
